From ChEMBL document CHEMBL3120132, “Antiviral compounds for the treatment of HCV” (ACS Med Chem Lett, 2014)

What follows are compounds tested on Hepatitis C virus (assay: Antiviral activity against Hepatitis C virus Con1 genotype 1b expressing NS3 infected in human 2209-23 cells assessed as inhibition of viral replication after 72 hrs by luciferase reporter gene assay). Conditions: isolate Con1, 2209-23, 72 h.
Assay type: functional, organism-based, Hepacivirus hominis

Row | Structure (SMILES) | IC50 [nM]
1 | CCOC(=O)[C@@H]1C[C@H](NC(=O)c2ccc3ccccc3c2O)CN1CC1CCCC1 | 0.029
2 | COC(=O)[C@@H]1C[C@H](NC(=O)c2ccc3ccccc3c2O)CN1CCC(C)(C)C | 0.051
3 | CCOC(=O)[C@@H]1C[C@H](NC(=O)c2ccc3ccccc3c2O)CN1CC1CCC1 | 0.052
4 | COC(=O)[C@@H]1C[C@H](NC(=O)c2ccc3ccccc3c2O)CN1CC1CCCCC1 | 0.047
5 | CCOC(=O)[C@@H]1C[C@H](NC(=O)c2ccc3ccccc3c2O)CN1CC(C)C | 0.055
6 | COC(=O)[C@@H]1C[C@H](NC(=O)c2ccc3ccccc3c2O)CN1Cc1ccccc1 | 0.079
